Data published in patent publication US20040086901A1, “Database for analyzing gene function and method of analyzing gene function by dspa” (priority 2000, published 2004).

Columns and labels:
Type in all cases: cell-based, mouse
[1] = test system: NIH3T3 cells overexpressing Ki-ras; test: MTT cell viability, Ki-ras overexpressing cells vs parental line; conditions: Ki-ras high-expressing cells / parental cell line, 3 to 4 days
Protocol: (§1) With regard to the function-known genes, the genes shown in the left column of Table 2 were used. With regard to the drugs, those shown in Table 1 were dissolved in DMSO to an extent of 100-fold of the maximum concentration for the search of the drugs and used. With regard to the cells, incubated NIH3T3 or ras-NIH3T3 cells were used.
(§2) Full-length cDNA of each function-known genes was incorporated into an expression vector (pRc-CMV, etc.) and transfected into NIH3T3 cells by a common method. Transformed cells were isolated using the resistance to G-418 as an index and the expression of the transfected gene in each cell was investigated by Western blotting method to select a highly expressing line.
(§3) Cell viabilities were measured according to the following procedures.
(§4) 1) From the 2nd to the 11th rows of a 96-well plate were filled with DMEM (50 μl). The 12th row was filled with 100 μl of DMEM.
(§5) 2) The 1st row was filled with 98 μl of DMEM.
(§6) 3) Drugs (2 μl each) were added into the 1st row.
(§7) 4) Continuous double-dilution was conducted from the 1st to the 9th rows. Fifty μl were taken out from the 9th row and discarded. The plate was preserved in a CO2 incubator.
(§8) 5) Cells (each high-expressing cells and the parental cell line) were detached from the medium using a trypsin solution, suspended in 10% CS-DMEM and transferred to a test tube and cell numbers (cell/ml) were counted.
(§9) 6) The cells were diluted to a concentration of 1×10^5 cells/ml, and 50 μl of the cell suspension were added to the 1st to the 11th rows of the plate followed by gently stirring.
(§10) 7) The plate was transferred to the CO2 incubator and incubated for 3 to 4 days.
(§11) 8) MTT (5 mg/ml in PBS) (10 μl) was added to the 1st to the 12th rows of the plate and incubated in the CO2 incubator at 37° C. for 4 hours.
(§12) 9) A reaction stop solution (0.04N HCl in isopropanol) (150 μl) was added followed by mixing well and being allowed to stand at room temperature for about 2 hours.
(§13) 10) Coloration of formazan which was a metabolite of the MTT dye was measured using a microplate reader. The measurement wavelength was 574 nm and the reference wavelength was 655 nm. The 10th and the 11th rows of the plate were 100% controls and the 12th row was a 0% control.
(§14) As an index for the sensitivity of highly gene-expressing cells and the parental cell line to various drugs, each of the IC40 values thereof was specified and ratios of the IC40 values were calculated. FIG. 2 and FIG. 3 are the examples where ratios of IC40 values were calculated from a curve showing the dependency on the concentration of the chemical versus the viability. After that, logarithmic values of ratios of IC40 values were calculated from each gene.

[2] = test system: NIH3T3 cells overexpressing N-ras; test: MTT cell viability, N-ras overexpressing cells vs parental line; conditions: N-ras high-expressing cells / parental cell line, 3 to 4 days
Protocol: as §1, §2, §3, §4, §5, §6, §7, §8, §9, §10, §11, §12, §13, §14

[3] = test system: NIH3T3 cells overexpressing v-src; test: MTT cell viability, v-src overexpressing cells vs parental line; conditions: v-src high-expressing cells / parental cell line, 3 to 4 days
Protocol: as §1, §2, §3, §4, §5, §6, §7, §8, §9, §10, §11, §12, §13, §14

[4] = test system: NIH3T3 cells overexpressing TK; test: MTT cell viability, TK overexpressing cells vs parental line; conditions: TK high-expressing cells / parental cell line, 3 to 4 days
Protocol: as §1, §2, §3, §4, §5, §6, §7, §8, §9, §10, §11, §12, §13, §14

[5] = test system: NIH3T3 cells overexpressing m-calpain; test: MTT cell viability, m-calpain overexpressing cells vs parental line; conditions: m-calpain high-expressing cells / parental cell line, 3 to 4 days
Protocol: as §1, §2, §3, §4, §5, §6, §7, §8, §9, §10, §11, §12, §13
(§15) As an index for the sensitivity of highly gene-expressing cells and the parental cell line to various drugs, each of the IC40 values thereof was specified and ratios of the IC40 values were calculated. […] After that, logarithmic values of ratios of IC40 values were calculated from each gene.

[6] = test system: NIH3T3 cells overexpressing cAMP-PK-CS; test: MTT cell viability, cAMP-PK-CS overexpressing cells vs parental line; conditions: cAMP-PK-CS high-expressing cells / parental cell line, 3 to 4 days
Protocol: as §1, §2, §3, §4, §5, §6, §7, §8, §9, §10, §11, §12, §13, §15

[7] = test system: NIH3T3 cells overexpressing calpastatin; test: MTT cell viability, calpastatin overexpressing cells vs parental line; conditions: calpastatin high-expressing cells / parental cell line, 3 to 4 days
Protocol: as §1, §2, §3, §4, §5, §6, §7, §8, §9, §10, §11, §12, §13, §14

[8] = test system: NIH3T3 cells overexpressing Regucalcin; test: MTT cell viability, Regucalcin overexpressing cells vs parental line; conditions: Regucalcin high-expressing cells / parental cell line, 3 to 4 days
Protocol: as §1, §2, §3, §4, §5, §6, §7, §8, §9, §10, §11, §12, §13, §14

[9] = test system: NIH3T3 cells overexpressing cystatin alpha; test: MTT cell viability, cystatin alpha overexpressing cells vs parental line; conditions: cystatin alpha high-expressing cells / parental cell line, 3 to 4 days
Protocol: as §1, §2, §3, §4, §5, §6, §7, §8, §9, §10, §11, §12, §13, §14

[10] = test system: NIH3T3 cells overexpressing cystatin E; test: MTT cell viability, cystatin E overexpressing cells vs parental line; conditions: cystatin E high-expressing cells / parental cell line, 3 to 4 days
Protocol: as §1, §2, §3, §4, §5, §6, §7, §8, §9, §10, §11, §12, §13, §14

[11] = test system: NIH3T3 cells overexpressing caspase-1; test: MTT cell viability, caspase-1 overexpressing cells vs parental line; conditions: caspase-1 high-expressing cells / parental cell line, 3 to 4 days
Protocol: as §1, §2, §3, §4, §5, §6, §7, §8, §9, §10, §11, §12, §13, §15

[12] = test system: NIH3T3 cells overexpressing caspase-2; test: MTT cell viability, caspase-2 overexpressing cells vs parental line; conditions: caspase-2 high-expressing cells / parental cell line, 3 to 4 days
Protocol: as §1, §2, §3, §4, §5, §6, §7, §8, §9, §10, §11, §12, §13, §14

[13] = test system: NIH3T3 cells overexpressing RhoA; test: MTT cell viability, RhoA overexpressing cells vs parental line; conditions: RhoA high-expressing cells / parental cell line, 3 to 4 days
Protocol: as §1, §2, §3, §4, §5, §6, §7, §8, §9, §10, §11, §12, §13, §14

[14] = test system: NIH3T3 cells overexpressing PDGF-R; test: MTT cell viability, PDGF-R overexpressing cells vs parental line; conditions: PDGF-R high-expressing cells / parental cell line, 3 to 4 days
Protocol: as §1, §2, §3, §4, §5, §6, §7, §8, §9, §10, §11, §12, §13, §14

[15] = test system: NIH3T3 cells overexpressing STAT1; test: MTT cell viability, STAT1 overexpressing cells vs parental line; conditions: STAT1 high-expressing cells / parental cell line, 3 to 4 days
Protocol: as §1, §2, §3, §4, §5, §6, §7, §8, §9, §10, §11, §12, §13, §15

[16] = test system: NIH3T3 cells overexpressing CBP8; test: MTT cell viability, CBP8 overexpressing cells vs parental line; conditions: CBP8 high-expressing cells / parental cell line, 3 to 4 days
Protocol: as §1, §2, §3, §4, §5, §6, §7, §8, §9, §10, §11, §12, §13, §14

[17] = test system: NIH3T3 cells overexpressing PKCalpha-KN; test: MTT cell viability, PKCalpha-KN overexpressing cells vs parental line; conditions: 3 to 4 days
Protocol: as §1, §2, §3, §4, §5, §6, §7, §8, §9, §10, §11, §12, §13, §15

[18] = test system: NIH3T3 cells overexpressing JNK-DN; test: MTT cell viability, JNK-DN overexpressing cells vs parental line; conditions: JNK-DN high-expressing cells / parental cell line, 3 to 4 days
Protocol: as §1, §2, §3, §4, §5, §6, §7, §8, §9, §10, §11, §12, §13, §14

[19] = test system: NIH3T3 cells overexpressing CaMKIIa; test: MTT cell viability, CaMKIIa overexpressing cells vs parental line; conditions: CaMKIIa high-expressing cells / parental cell line, 3 to 4 days
Protocol: as §1, §2, §3, §4, §5, §6, §7, §8, §9, §10, §11, §12, §13, §15

[20] = test system: NIH3T3 cells overexpressing HNF1; test: MTT cell viability, HNF1 overexpressing cells vs parental line; conditions: HNF1 high-expressing cells / parental cell line, 3 to 4 days
Protocol: as §1, §2, §3, §4, §5, §6, §7, §8, §9, §10, §11, §12, §13, §15

[21] = PKCalpha-KN (first of two lines) high-expressing cells / parental cell line
[22] = PKCalpha-KN (second of two lines) high-expressing cells / parental cell line

Row | Structure (SMILES) | logarithmic value of ratio of IC40 values [1] | logarithmic value of ratio of IC40 values [2] | logarithmic value of ratio of IC40 values [3] | logarithmic value of ratio of IC40 values [4] | logarithmic value of ratio of IC40 values [5] | logarithmic value of ratio of IC40 values [6] | logarithmic value of ratio of IC40 values [7] | logarithmic value of ratio of IC40 values [8] | logarithmic value of ratio of IC40 values [9] | logarithmic value of ratio of IC40 values [10] | logarithmic value of ratio of IC40 values [11] | logarithmic value of ratio of IC40 values [12] | logarithmic value of ratio of IC40 values [13] | logarithmic value of ratio of IC40 values [14] | logarithmic value of ratio of IC40 values [15] | logarithmic value of ratio of IC40 values [16] | logarithmic value of ratio of IC40 values [17, 21] | logarithmic value of ratio of IC40 values [17, 22] | logarithmic value of ratio of IC40 values [18] | logarithmic value of ratio of IC40 values [19] | also measured
1 | C=C[C@@]1(C)CC(=O)[C@]2(O)[C@@]3(C)[C@@H](O)CCC(C)(C)[C@@H]3[C@H](O)[C@H](OC(C)=O)[C@@]2(C)O1 [Forskolin, forskolin] | 0.36 | 0.54 | −0.46 | 0.56 | 0.25 | 0.51 | −0.09 | −0.10 | 0.72 | 0.29 | 0.34 | −0.34 | 0.47 | 0.16 | 0.51 | 0.40 | −0.47 | 0.00 | −0.22 | 0.00 | logarithmic value of ratio of IC40 values [20]: 1.15
2 | O=c1c(-c2ccc(O)cc2)coc2cc(O)cc(O)c12 [Genistein, genistein] | 0.00 | 0.42 | −0.60 | 0.08 | 0.18 | 0.00 | 0.127 | 0.00 | 0.28 | 0.21 | −0.12 | 0.30 | 0.31 | 0.32 | 0.10 | 0.10 | 0.16 | 0.24 | −0.10 | −0.15 | logarithmic value of ratio of IC40 values [20]: 0.234
3 | CO[C@H]1[C@@H](OC)C[C@H](C)[C@@H](OC)C2=CC(=O)C=C(NC(=O)/C(C)=C/C=C\[C@H](OC)[C@@H](OC(N)=O)/C(C)=C/[C@@H]1C)C2=O [HMA, herbimycin A] | −0.14 | 0.43 | −0.35 | 0.00 | 0.00 | 0.12 | −0.14 | −0.20 | −0.12 | 0.00 | 0.00 | 0.10 | 0.13 | 0.19 | −0.05 | 0.09 | 0.09 | −0.10 | −0.14 | 0.00 | logarithmic value of ratio of IC40 values [20]: 0.161
4 | COC(=O)[C@@]1(O)C[C@H]2O[C@]1(C)n1c3ccccc3c3c4c(c5c6ccccc6n2c5c31)C(=O)NC4 [K252a] | 0.15 | −0.16 | −0.22 | 0.23 | 0.13 | −0.04 | 0.1 | −0.34 | −0.10 | −0.19 | 0.04 | 0.37 | 0.10 | 0.10 | 0.15 | 0.28 | 0.16 | 0.02 | −0.28 | 0.04 | logarithmic value of ratio of IC40 values [20]: −0.207
5 | CCCC[C@@H](C)/C=C(C)/C=C(\C)C(=O)NC1=C[C@@](O)(/C=C/C=C/C=C/C(=O)NC2=C(O)CCC2=O)[C@@H]2O[C@@H]2C1=O [Manumycin, manumycin] | −0.24 | −0.09 | 0.00 | 0.00 | 0.05 | 0.08 | 0.02 | 0.04 | −0.19 | 0.00 | −0.06 | 0.08 | −0.04 | 0.17 | 0.00 | 0.09 | 0.00 | 0.16 | −0.05 | 0.00 | logarithmic value of ratio of IC40 values [20]: 0.06
